{"source": "paper PMC8116649", "about": "(Frontiers in Pharmacology, 2021)", "key": {"[1]": {"details": "rats, cited from earlier work"}, "CYP1A2 [2]": {"molecular_target": "T1, CYP1A2 (Homo sapiens, UniProt P05177)", "T1 sequence (P05177 1-516)": "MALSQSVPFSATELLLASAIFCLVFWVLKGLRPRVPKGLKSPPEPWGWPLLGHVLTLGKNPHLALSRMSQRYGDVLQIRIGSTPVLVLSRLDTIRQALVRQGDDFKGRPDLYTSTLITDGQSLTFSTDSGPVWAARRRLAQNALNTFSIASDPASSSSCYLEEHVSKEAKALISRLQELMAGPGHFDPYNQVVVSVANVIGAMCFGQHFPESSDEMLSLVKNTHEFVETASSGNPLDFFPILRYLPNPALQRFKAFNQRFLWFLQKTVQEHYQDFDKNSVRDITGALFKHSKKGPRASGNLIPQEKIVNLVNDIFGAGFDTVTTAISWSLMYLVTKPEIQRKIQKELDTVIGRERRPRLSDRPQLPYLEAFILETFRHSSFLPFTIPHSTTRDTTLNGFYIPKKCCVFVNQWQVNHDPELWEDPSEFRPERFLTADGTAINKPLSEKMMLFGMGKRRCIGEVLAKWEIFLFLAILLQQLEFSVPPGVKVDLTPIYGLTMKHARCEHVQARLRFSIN", "protocol": "(§1) In the pre-incubation step, HLMs (1.2 mg/ml) were pre-incubated with different furanocoumarin concentrations in the presence of NADPH for various time periods at 37°C. […] The final incubation volume was 320.0 µl. At the conclusion of a 10 min incubation, the reaction was stopped by the addition of a 10% TCA solution. The incubation mixture was extracted by a SPE tube, and the radioactivity in the eluant was counted in a liquid scintillation counter as described earlier.\n(§2) The observed in vitro rate constant (kobs) was calculated using the slopes of linear regression analyses from natural logarithm (Ln) percentage remaining activity against pre-incubation time plots. The maximum inactivation rate constant (kinact) was calculated using the non-linear regression analyses of plots of the inactivator concentrations against kobs values. […] The plotting was performed using the GraphPad Prism version 5.04 (GraphPad Software, San Diego, CA)."}, "[3]": {"molecular_target": "ethoxyresorufin-O-deethylase", "set-up": "method as in Cai et al., 1993", "details": "mice liver microsomes; ref Cai et al., 1993; cited from earlier work"}, "CYP1A2 [4]": {"molecular_target": "T1, CYP1A2", "experiment": "Caffeine-N-demethylase assay with 14C-caffeine in human liver microsomes, IC50 determination", "protocol": "Incubation was conducted at 37°C in a metabolic incubator with a 60 cycles/min shaking rate. At the conclusion of 10 min incubation, the reaction was terminated by the addition of 10% TCA solution (50.0 µl). The incubation mixture was centrifuged at 4,000×g. An aliquot (300.0 µl) of the supernatant was applied to a 3.0 ml Sigma-Aldrich Superclean ENVI-Carbon solid phase extraction (SPE) tube (0.25 g, 80–100 mesh). […] The eluant was collected into a scintillation vial. After the addition of 15.0 ml scintillation cocktail, the radioactivity in the vial was counted in a liquid scintillation counter. The results were expressed as residual counts of the control incubation.\nCYP 1A2 activity inhibition was plotted against log furanocoumarin concentration after normalizing the inhibition data from 0–100%. The resulting inhibition-concentration curves were fitted separately to a four-parameter logistic function to determine the IC50 values. Curve fitting was performed using the GraphPad Prism version 5.04 (GraphPad Software, San Diego, CA). The IC50 represented the concentration of the furanocoumarin chemical to evoke a half maximal inhibition of the CYP 1A2 activity."}, "human CYP 1A2 isozyme": {"molecular_target": "human CYP 1A2 isozyme", "set-up": "method as in Kang et al., 2011", "details": "mechanism-based inhibition; ref Kang et al., 2011; cited from earlier work"}, "[5]": {"experiment": "Caffeine pharmacokinetics in saliva/plasma of untreated human volunteers (baseline)", "format": "in vivo", "details": "caffeine 200 mg single oral dose", "method": "Male human volunteers, between 21 and 30 years old and living in the Metro Vancouver area, were recruited for the study. The volunteers had to meet specific eligibility criteria: not smoking, use medication, consume alcohol heavily or have any health concerns which may affect the test results. […] The participants were also asked to refrain from consuming solid foods 3.0 h prior to the study. The study protocol was approved by the Simon Fraser University Office of Research Ethics with approval number 2012s0565 and registration number ISRCTN83028296.\nThis study adopted a non-randomized, single-blinded, and crossover design in which each subject acted as their own control ([Sheriffdeen et al., 2019]). […] In the ARFP extract treatment study, the same group of volunteers was used after a 4 days washout period. […] Saliva samples were collected at 0.5, 1.0, 1.5, 2.0, 2.5, 3.0, 4.0, 6.0, 8.0, 12.0, 24.0, 36.0, and 48.0 h post-dosing. All saliva samples were stored in the dark at freezing temperature until they were ready for extraction and HPLC-UV analysis.\nThe saliva samples were thawed at room temperature, mixed by vortexing for 30 s, and centrifuged for 10 min at 4,000×g. Exactly 200.0 µl aliquot of the saliva sample was removed and spiked with 100.0 µl of the internal standard (ISTD) benzotriazole (50.0 μg/ml). […]\nThe following pharmacokinetic parameters were determined: the Tmax (time to reach peak plasma level) and Cmax (concentration of peak plasma level) were determined by visual inspection. The AUC0-inf (area under plasma concentration-time curve from zero to infinity) was determined by non-compartmental analysis using the PK Solver software ([Zhang et al., 2010]). The AUC0-inf was determined using the log-linear trapezoidal rule from dosing time to last time point and extrapolated to infinity by dividing the last concentration with the elimination rate constant. The AUC ratio was calculated by dividing the AUC0-inf after ARFP extract pretreatment with the AUC0-inf before ARFP extract pretreatment."}, "[6]": {"details": "cited from earlier work"}, "[7]": {"details": "cited from earlier work", "remark": "listed apart in the source"}, "CYP1A2 [8]": {"molecular_target": "T1, CYP1A2", "experiment": "Pre-incubation time- and furanocoumarin concentration-dependent inhibition of caffeine metabolism in HLMs", "details": "for KI: HLMs 1.2 mg/ml, pre-incubation with NADPH, CYP 1A2 inactivation", "protocol": "as §1, §2"}, "[9]": {"molecular_target": "benzo(a)pyrene hydroxylase", "set-up": "method as in Tinel et al., 1987", "details": "HLMs; ref Tinel et al., 1987; cited from earlier work"}, "[10]": {"molecular_target": "7-ethoxycoumarin deethylase", "set-up": "method as in Tinel et al., 1987", "details": "HLMs; ref Tinel et al., 1987; cited from earlier work"}}, "note": "Like-named read-outs stand apart in the source and are kept apart here.", "data": [{"smiles": "COc1c2ccoc2c(OC)c2oc(=O)ccc12", "note": "[ISOP, isopimpinellin]", "values": [{"measurement": "Tmax", "setting": "[1]; oral dose of C. monnieri herbal product, ref Li et al., 2014", "result": "1.1 ± 0.3", "unit": "h"}, {"measurement": "Tmax", "setting": "[1]; oral dose of Toddalia asiatica herbal product, ref Liu et al., 2012", "result": "1.3 ± 0.3", "unit": "h"}, {"measurement": "KI", "setting": "CYP1A2 [2]", "result": "4.48 ± 0.56", "unit": "µM"}, {"measurement": "IC50", "setting": "[3]", "result": 1900, "unit": "nM"}, {"measurement": "IC50", "setting": "CYP1A2 [4]", "result": 290, "unit": "nM"}, {"measurement": "KI", "setting": "human CYP 1A2 isozyme", "result": 1.2, "unit": "µM"}, {"measurement": "kinact", "setting": "human CYP 1A2 isozyme", "result": 0.34, "unit": "min⁻¹"}]}, {"smiles": "Cn1c(=O)c2c(ncn2C)n(C)c1=O", "note": "[Caffeine, caffeine]", "values": [{"measurement": "Tmax UT", "setting": "[5]; plasma (from saliva), untreated volunteers of the study group of that line", "result": 48, "unit": "min"}, {"measurement": "Cmax", "setting": "[5]; male, human, plasma (calculated from saliva concentrations), po, 200 mg, untreated volunteers", "result": 5100, "unit": "ng/mL"}, {"measurement": "AUC(0-inf)", "setting": "[5]; male, human, plasma (calculated from saliva concentrations), po, 200 mg, untreated volunteers, read-out: AUC0-inf UT", "result": "33500 to 55800", "unit": "ng·h/mL"}, {"measurement": "AUC", "setting": "[6]; 12 human volunteers, 167 mg orally, ref Fuhr et al., 1993", "result": "28.5 ± 14.9", "unit": "µg·h/mL"}, {"measurement": "AUC", "setting": "[6]; healthy volunteers, 5 mg/kg dose, mean ± SD, ref Kamimori et al., 1995", "result": "60.8 ± 23.7", "unit": "µg·h/mL"}, {"measurement": "Time to reach the peak concentration in the blood", "setting": "[6]; single oral dose, ref Tang-Liu et al., 1983", "result": "≤ 1.0", "unit": "h"}]}, {"smiles": "COc1c2ccoc2cc2oc(=O)ccc12", "note": "[5-MOP, 5-methoxypsoralen]", "values": [{"measurement": "IC50", "setting": "[3]", "result": 2300, "unit": "nM"}, {"measurement": "Tmax", "setting": "[7]; PUVA patients, ref Shephard et al., 1999", "result": "2.8 ± 0.8", "unit": "h"}, {"measurement": "Tmax", "setting": "[7]; healthy humans, ref Stolk et al., 1981", "result": "3.0 ± 0.6", "unit": "h"}, {"measurement": "IC50", "setting": "CYP1A2 [4]", "result": 130, "unit": "nM"}, {"measurement": "KI", "setting": "CYP1A2 [8]", "result": "3.73 ± 3.66", "unit": "µM"}, {"measurement": "kinact", "setting": "CYP1A2 [8]; human, human liver microsomes, probe caffeine (6.4 µM non-labeled + 0.2 µCi 14C-caffeine)", "result": 0.00583, "unit": "s⁻¹"}]}, {"smiles": "COc1c2occc2cc2ccc(=O)oc12", "note": "[8-MOP, 8-methoxypsoralen]", "values": [{"measurement": "IC50", "setting": "[9]", "result": "~25", "unit": "µM"}, {"measurement": "KI", "setting": "CYP1A2 [8]", "result": "0.78 ± 0.32", "unit": "µM"}, {"measurement": "IC50", "setting": "[10]", "result": "~25", "unit": "µM"}]}]}
